# Calls of active or inactive are those of the source. The rule behind the calls is not given here.
# Assays:
# [1] = target: T1, Retinoic acid receptor RXR-alpha (Homo sapiens, UniProt P19793); assay: Inhibition of 9-cis-retinoic acid-induced RXRalpha transactivation
# T1 sequence (P19793 whole entry): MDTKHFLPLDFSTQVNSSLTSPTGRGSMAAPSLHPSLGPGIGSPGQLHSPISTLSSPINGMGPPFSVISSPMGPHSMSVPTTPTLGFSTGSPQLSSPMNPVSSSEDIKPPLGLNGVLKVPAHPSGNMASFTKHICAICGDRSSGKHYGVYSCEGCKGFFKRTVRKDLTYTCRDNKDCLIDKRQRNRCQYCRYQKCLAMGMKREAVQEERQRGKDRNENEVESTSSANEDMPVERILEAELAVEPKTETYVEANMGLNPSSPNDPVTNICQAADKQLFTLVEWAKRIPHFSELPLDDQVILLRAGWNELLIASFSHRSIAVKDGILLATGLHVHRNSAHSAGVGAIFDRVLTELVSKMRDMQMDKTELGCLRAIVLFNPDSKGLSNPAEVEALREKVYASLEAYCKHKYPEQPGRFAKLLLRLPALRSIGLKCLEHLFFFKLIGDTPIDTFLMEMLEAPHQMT
# [2] = target: T1, Retinoic acid receptor RXR-alpha; assay: Inhibition of LG-100268-induced RXRalpha transactivation
# Mus musculus [3] = species on record: Mus musculus; assay: Decrease in plasma insulin concentration in obese/diabetic KKAy mouse; format: ADME, organism-based
# Mus musculus [4] = species on record: Mus musculus; assay: Decrease in body weight gain in obese/diabetic KKAy mouse; format: functional, organism-based
# Mus musculus [5] = species on record: Mus musculus; assay: Decrease in plasma glucose concentration in obese/diabetic KKAy mouse; format: ADME, organism-based
Structure (SMILES),IC50 [1],IC50 [2],Activity (Mus musculus [3]),Activity (Mus musculus [5]),Activity (Mus musculus [4])
COc1ccc(CS(=O)(=O)c2ccc3c(c2)N=C(c2ccc(C(=O)O)cc2)c2cc4c(cc2N3C)C(C)(C)CCC4(C)C)cc1,780 nM,1400 nM,,,
COc1ccc(S(=O)(=O)c2ccc3c(c2)N=C(c2ccc(C(=O)O)cc2)c2cc4c(cc2N3C)C(C)(C)CCC4(C)C)cc1,170 nM,360 nM,,,
CN1c2ccc(S(=O)(=O)Cc3ccc(Cl)cc3)cc2N=C(c2ccc(C(=O)O)cc2)c2cc3c(cc21)C(C)(C)CCC3(C)C,420 nM,950 nM,,,
CCN1c2ccc(C(C)=O)cc2N=C(c2ccc(C(=O)O)cc2)c2cc3c(cc21)C(C)(C)CCC3(C)C,790 nM,970 nM,,,
CC(=O)c1ccc2c(c1)N=C(c1ccc(C(=O)O)cc1F)c1cc3c(cc1N2C)C(C)(C)CCC3(C)C,,4600 nM,,,
CN1c2ccc(S(=O)(=O)N3CCCC3)cc2N=C(c2ccc(C(=O)O)cc2)c2cc3c(cc21)C(C)(C)CCC3(C)C,450 nM,1000 nM,,,
CN1CCN(c2ccc3c(c2)N=C(c2ccc(C(=O)O)cc2)c2cc4c(cc2N3C)C(C)(C)CCC4(C)C)CC1,,11000 nM,,,
CC(=O)c1ccc2c(c1)N=C(c1ccc(C(=O)O)c(F)c1)c1cc3c(cc1N2C)C(C)(C)CCC3(C)C,1100 nM,1700 nM,,,
CN1c2ccc(S(C)(=O)=O)cc2N=C(c2ccc(C(=O)O)cc2)c2cc3c(cc21)C(C)(C)CCC3(C)C,1400 nM,1700 nM,,,
COc1ccc(CSc2ccc3c(c2)N=C(c2ccc(C(=O)O)cc2)c2cc4c(cc2N3C)C(C)(C)CCC4(C)C)cc1,5500 nM,4900 nM,,,
CN1c2ccc(C#N)cc2N=C(c2ccc(C(=O)O)c(F)c2)c2cc3c(cc21)C(C)(C)CCC3(C)C,520 nM,1200 nM,,,
CCCN1c2ccc(C#N)cc2N=C(c2ccc(C(=O)O)cc2)c2cc3c(cc21)C(C)(C)CCC3(C)C,2100 nM,2100 nM,,,
CN1c2ccc(C#N)cc2N=C(c2ccc(C(=O)O)cc2)c2cc3c(cc21)C(C)(C)CCC3(C)C,430 nM,820 nM,,,

# The remaining compounds from weak to strong by IC50 [2], led by results:
IC50 [1],IC50 [2],Activity (Mus musculus [3]),Activity (Mus musculus [5]),Structure (SMILES),Activity (Mus musculus [4])
3900 nM,7000 nM,,,CN1c2ccc(N3CCOCC3)cc2N=C(c2ccc(C(=O)O)cc2)c2cc3c(cc21)C(C)(C)CCC3(C)C,
3000 nM,3300 nM,,,CCN1c2ccc(C(C)=O)cc2N=C(c2ccc(C(=O)O)cc2F)c2cc3c(cc21)C(C)(C)CCC3(C)C,
2000 nM,3000 nM,,,CSc1ccc2c(c1)N=C(c1ccc(C(=O)O)cc1)c1cc3c(cc1N2C)C(C)(C)CCC3(C)C,
2000 nM,2200 nM,,,CN1c2ccc(S(=O)(=O)N(C)C)cc2N=C(c2ccc(C(=O)O)cc2)c2cc3c(cc21)C(C)(C)CCC3(C)C,
1000 nM,1900 nM,,,CN1CCN(S(=O)(=O)c2ccc3c(c2)N=C(c2ccc(C(=O)O)cc2)c2cc4c(cc2N3C)C(C)(C)CCC4(C)C)CC1,
670 nM,1600 nM,,,CN1c2ccc(SCc3ccc(Cl)cc3)cc2N=C(c2ccc(C(=O)O)cc2)c2cc3c(cc21)C(C)(C)CCC3(C)C,
720 nM,1600 nM,,,COc1ccc(Sc2ccc3c(c2)N=C(c2ccc(C(=O)O)cc2)c2cc4c(cc2N3C)C(C)(C)CCC4(C)C)cc1,
1300 nM,1300 nM,,,CNS(=O)(=O)c1ccc2c(c1)N=C(c1ccc(C(=O)O)cc1)c1cc3c(cc1N2C)C(C)(C)CCC3(C)C,
890 nM,1100 nM,,,CC(=O)c1ccc2c(c1)N=C(c1ccc(C(=O)O)cc1)c1cc3c(cc1N2C)C(C)(C)CCC3(C)C,
530 nM,1100 nM,,,CCN1c2ccc(C#N)cc2N=C(c2ccc(C(=O)O)cc2F)c2cc3c(cc21)C(C)(C)CCC3(C)C,
450 nM,1000 nM,,,CN1c2ccc(S(=O)(=O)N3CCOCC3)cc2N=C(c2ccc(C(=O)O)cc2)c2cc3c(cc21)C(C)(C)CCC3(C)C,
390 nM,1000 nM,,,CN1c2ccc(Sc3ccc(OC(F)(F)F)cc3)cc2N=C(c2ccc(C(=O)O)cc2)c2cc3c(cc21)C(C)(C)CCC3(C)C,
460 nM,960 nM,,,CN1c2ccc(S(=O)(=O)Nc3ccc(OC(F)(F)F)cc3)cc2N=C(c2ccc(C(=O)O)cc2)c2cc3c(cc21)C(C)(C)CCC3(C)C,
450 nM,920 nM,,,CCCS(=O)(=O)c1ccc2c(c1)N=C(c1ccc(C(=O)O)cc1)c1cc3c(cc1N2C)C(C)(C)CCC3(C)C,
500 nM,770 nM,Active,Active,CCN1c2ccc(C#N)cc2N=C(c2ccc(C(=O)O)c(F)c2)c2cc3c(cc21)C(C)(C)CCC3(C)C,Active
320 nM,480 nM,,,CCN1c2ccc(C#N)cc2N=C(c2ccc(C(=O)O)cc2)c2cc3c(cc21)C(C)(C)CCC3(C)C,
190 nM,410 nM,,,CCCCNS(=O)(=O)c1ccc2c(c1)N=C(c1ccc(C(=O)O)cc1)c1cc3c(cc1N2C)C(C)(C)CCC3(C)C,
130 nM,240 nM,,,CN1c2ccc(S(=O)(=O)c3ccc(OC(F)(F)F)cc3)cc2N=C(c2ccc(C(=O)O)cc2)c2cc3c(cc21)C(C)(C)CCC3(C)C,

# Reference: ChEMBL document CHEMBL1146246, “Synthesis and structure-activity relationship of novel RXR antagonists: orally active anti-diabetic and anti-obesity agents” (Bioorg Med Chem Lett, 2007)
